pKd: −log10 of the molar value.

Experiment [1] addresses T1, human Siglec-2/CD22 protein (Homo sapiens, UniProt P20273).
T1 construct: purchased Acro Biosystems SI2-H82E3
T1 sequence (P20273 20-847): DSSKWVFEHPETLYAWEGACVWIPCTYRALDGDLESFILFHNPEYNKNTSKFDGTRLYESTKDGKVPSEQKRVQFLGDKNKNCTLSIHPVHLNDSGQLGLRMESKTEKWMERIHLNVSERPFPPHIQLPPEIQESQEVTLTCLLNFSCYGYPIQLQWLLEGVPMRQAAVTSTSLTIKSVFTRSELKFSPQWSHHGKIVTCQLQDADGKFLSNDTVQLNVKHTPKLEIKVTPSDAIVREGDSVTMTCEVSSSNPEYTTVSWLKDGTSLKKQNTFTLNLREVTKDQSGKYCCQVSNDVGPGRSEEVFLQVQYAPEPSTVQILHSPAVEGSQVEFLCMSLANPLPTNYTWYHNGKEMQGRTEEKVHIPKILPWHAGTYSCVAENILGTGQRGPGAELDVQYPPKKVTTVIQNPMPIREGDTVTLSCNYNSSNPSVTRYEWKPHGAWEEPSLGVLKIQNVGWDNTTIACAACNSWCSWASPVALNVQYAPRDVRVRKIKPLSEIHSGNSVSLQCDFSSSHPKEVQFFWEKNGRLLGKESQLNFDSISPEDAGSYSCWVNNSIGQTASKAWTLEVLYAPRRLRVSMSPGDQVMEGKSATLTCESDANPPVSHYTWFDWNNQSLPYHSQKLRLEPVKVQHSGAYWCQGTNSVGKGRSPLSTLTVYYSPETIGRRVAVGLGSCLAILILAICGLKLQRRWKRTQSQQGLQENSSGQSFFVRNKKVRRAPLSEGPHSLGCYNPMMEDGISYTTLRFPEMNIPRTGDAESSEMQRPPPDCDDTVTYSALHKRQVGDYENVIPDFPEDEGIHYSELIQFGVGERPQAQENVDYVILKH
Put plainly: SPR binding affinity to human CD22. As to conditions: steady-state analysis. In a few lines:
(§1)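 SialoExo pretreatment, 4 h 37° C.; biotinylated CD22 on SA chip, Biacore 8K. Buffer 10 mM HEPES, 150 mM NaCl, 0.05% Tween-20, pH 7.5, 1% DMSO. Dissociation 120 s; solvent-corrected; steady-state KD.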
On the technique in general: In SPR one partner is held on a chip, and binding of the other changes the refractive index at the surface.

Experiment [2] has as its target cynomolgus Siglec-2/CD22 (Macaca fascicularis, UniProt A0A2K5WCZ6). The experiment can be described thus: biochemical. In kind it is binding. The settings on record: SPR, steady-state analysis; read-out: Affinity cyno CD22. How it is done:
Prior to immobilization, CD22 proteins were treated with SialoExo (Genovis, Cat #G1-SM1-020) for 4 hours at 37° C. to remove native sialic acid residues.
Surface preparation for cyno CD22 protein consisted of amine coupling to Cytiva CM5 chip (Cytiva, Cat #BR100530) using the Cytiva amine coupling kit Type 2 (Cytiva, Cat #BR100633). Following the standard amine coupling protocols, EDC and NHS from the kit were mixed 1:1 and injected over flow cells 1 and 2. […] Any active carboxy groups were then capped with 1M Ethanolamine, pH 8.5 for 420s on flow cells 1 and 2.
Binding experiments of Siglec-ligand conjugated proteins or Siglec ligand compounds were performed on the surfaces prepared above in 10 mM HEPES, 150 mM NaCl, 0.05% Tween-20, pH 7.5, 1% DMSO as the running buffer. […] The compounds were then allowed to dissociate from the surface for 120 seconds. […] Solvent correction was performed using 0.5, 1, 1.5, and 2% DMSO spike into running buffer without DMSO. […] Data was analyzed using steady-state analysis in Biacore Insight Evaluation Software, version 3.0 for Siglec ligand compounds.

Experiment [3] has as its target T2, mouse Siglec-2-Fc-Avi (CD22) (Mus musculus, UniProt P35329).
T2 construct: made in house
T2 sequence (P35329 22-708 limits assumed): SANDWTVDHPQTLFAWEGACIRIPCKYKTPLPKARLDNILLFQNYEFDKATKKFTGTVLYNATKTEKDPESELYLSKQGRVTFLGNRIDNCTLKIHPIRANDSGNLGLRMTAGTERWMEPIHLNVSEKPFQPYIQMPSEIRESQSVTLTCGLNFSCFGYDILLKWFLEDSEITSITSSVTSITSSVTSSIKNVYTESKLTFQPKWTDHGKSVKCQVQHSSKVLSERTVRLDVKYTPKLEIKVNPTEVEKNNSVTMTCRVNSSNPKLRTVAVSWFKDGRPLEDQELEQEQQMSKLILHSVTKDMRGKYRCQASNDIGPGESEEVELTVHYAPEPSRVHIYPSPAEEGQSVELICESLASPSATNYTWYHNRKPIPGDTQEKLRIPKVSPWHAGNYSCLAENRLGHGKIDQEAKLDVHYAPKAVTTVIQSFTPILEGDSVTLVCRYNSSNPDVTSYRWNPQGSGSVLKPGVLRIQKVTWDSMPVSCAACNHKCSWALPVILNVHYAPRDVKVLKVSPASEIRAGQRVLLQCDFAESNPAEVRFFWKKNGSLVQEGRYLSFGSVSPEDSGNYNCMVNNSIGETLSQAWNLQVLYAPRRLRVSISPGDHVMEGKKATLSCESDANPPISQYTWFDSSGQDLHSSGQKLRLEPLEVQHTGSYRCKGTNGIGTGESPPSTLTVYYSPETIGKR
The experiment can be described thus: SPR binding affinity to mouse CD22. The settings on record: steady-state analysis. In a few lines:
as §1

cynomolgus Siglec-2/CD22, sequence (A0A2K5WCZ6 entry or part of it): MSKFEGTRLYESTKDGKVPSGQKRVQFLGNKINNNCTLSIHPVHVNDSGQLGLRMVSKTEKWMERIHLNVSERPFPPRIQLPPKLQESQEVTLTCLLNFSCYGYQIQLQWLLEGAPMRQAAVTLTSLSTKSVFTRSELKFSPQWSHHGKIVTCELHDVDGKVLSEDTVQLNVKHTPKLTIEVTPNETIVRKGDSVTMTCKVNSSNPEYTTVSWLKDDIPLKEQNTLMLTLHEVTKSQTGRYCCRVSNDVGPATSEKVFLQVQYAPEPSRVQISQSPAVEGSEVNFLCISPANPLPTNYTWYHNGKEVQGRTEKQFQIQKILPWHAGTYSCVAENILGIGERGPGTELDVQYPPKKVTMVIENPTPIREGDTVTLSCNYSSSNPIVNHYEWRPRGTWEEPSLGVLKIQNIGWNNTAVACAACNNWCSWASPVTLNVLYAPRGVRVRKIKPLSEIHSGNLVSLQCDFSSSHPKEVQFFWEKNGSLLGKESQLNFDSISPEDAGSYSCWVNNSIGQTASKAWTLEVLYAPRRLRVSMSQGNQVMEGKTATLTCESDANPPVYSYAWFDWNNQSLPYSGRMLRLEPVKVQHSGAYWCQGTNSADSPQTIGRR

As for `C#CCOCCCCCCO[C@]1(C(=O)O)C[C@H](O)[C@@H](NC(C)=S)[C@H]([C@H](O)[C@H](O)CNC(=O)Cc2ccc(Cl)cc2)O1` [Compound 26, (2R,4S,5R,6R)-6-((1R,2R)-3-(2-(4-chlorophenyl)acetamido)-1,2-dihydroxypropyl)-5-ethanethioamido-4-hydroxy-2-((6-(prop-2-yn-1-yloxy)hexyl)oxy)tetrahydro-2H-pyran-2-carboxylic acid], the pKd in experiment [1], in experiment [2] and in experiment [3] was more than 6.00 in each case.
For the compound `C#CCOCCOCCO[C@]1(C(=O)O)C[C@H](O)[C@@H](NC(=O)CO)[C@H]([C@H](O)[C@H](O)CNC(=O)c2ccccc2Cl)O1` [Compound 27, (2R,4S,5R,6R)-6-((1R,2R)-3-(2-chlorobenzamido)-1,2-dihydroxypropyl)-4-hydroxy-5-(2-hydroxyacetamido)-2-(2-(2-(prop-2-yn-1-yloxy)ethoxy)ethoxy)tetrahydro-2H-pyran-2-carboxylic acid], the pKd in experiment [1], in experiment [2] and in experiment [3] was less than 5.00 each time.
With `C#CCOCCOCCO[C@]1(C(=O)O)C[C@H](O)[C@@H](NC(=O)CO)[C@H]([C@H](O)[C@H](O)CNC(=O)c2ccccc2O)O1` [Compound 28, (2R,4S,5R,6R)-6-((1R,2R)-1,2-dihydroxy-3-(2-hydroxybenzamido)propyl)-4-hydroxy-5-(2-hydroxyacetamido)-2-(2-(2-(prop-2-yn-1-yloxy)ethoxy)ethoxy)tetrahydro-2H-pyran-2-carboxylic acid], the pKd in experiment [1], in experiment [2] and in experiment [3] was less than 5.00 each time.
In the case of `C#CCOCCOCCO[C@]1(C(=O)O)C[C@H](O)[C@@H](NC(=O)CO)[C@H]([C@H](O)[C@H](O)CNC(=O)c2cccc(O)c2)O1` [Compound 29, (2R,4S,5R,6R)-6-((1R,2R)-1,2-dihydroxy-3-(3-hydroxybenzamido)propyl)-4-hydroxy-5-(2-hydroxyacetamido)-2-(2-(2-(prop-2-yn-1-yloxy)ethoxy)ethoxy)tetrahydro-2H-pyran-2-carboxylic acid], the pKd is 5.00 to 6.00 in experiment [1], less than 5.00 in experiment [2] and less than 5.00 in experiment [3].
As to `C#CCOCCOCCO[C@]1(C(=O)O)C[C@H](O)[C@@H](NC(=O)CO)[C@H]([C@H](O)[C@H](O)CNC(=O)c2ccc(Cl)cc2)O1` [Compound 30, (2R,4S,5R,6R)-6-((1R,2R)-3-(4-chlorobenzamido)-1,2-dihydroxypropyl)-4-hydroxy-5-(2-hydroxyacetamido)-2-(2-(2-(prop-2-yn-1-yloxy)ethoxy)ethoxy)tetrahydro-2H-pyran-2-carboxylic acid], the pKd in experiment [1] was 5.00 to 6.00; in experiment [2] it was 5.00 to 6.00; in experiment [3], less than 5.00.
Regarding `C#CCOCCOCCO[C@]1(C(=O)O)C[C@H](O)[C@@H](NC(=O)CO)[C@H]([C@@H](F)[C@H](O)CNC(=O)Cc2ccc(-c3ccccc3)cc2)O1` [Compound 32], the pKd in experiment [1], in experiment [2] and in experiment [3] was less than 5.00 each time.
Take `C#CCOCCOCCO[C@]1(C(=O)O)C[C@H](O)[C@@H](NC(=O)CO)[C@H]([C@H](O)[C@H](O)CNC(=O)Cc2cccc(-c3ccccc3)c2)O1` [Compound 33, (2R,4S,5R,6R)-6-((1R,2R)-3-(2-([1,1′-biphenyl]-3-yl)acetamido)-1,2-dihydroxypropyl)-4-hydroxy-5-(2-hydroxyacetamido)-2-(2-(2-(prop-2-yn-1-yloxy)ethoxy)ethoxy)tetrahydro-2H-pyran-2-carboxylic acid]: the pKd in experiment [1] is more than 6.00; in experiment [2] it was 5.00 to 6.00; in experiment [3], less than 5.00.
For the compound `C#CCOCCOCCO[C@@]1(C(=O)O)O[C@@H]([C@H](O)[C@H](O)CNC(=O)Cc2ccc(-c3ccccc3)cc2)[C@H](NC(=O)CO)[C@@H](NC(=O)c2cccc(OC)c2)[C@@H]1O` [Compound 36, (2R,3S,4R,5R,6R)-6-((1R,2R)-3-(2-([1,1′-biphenyl]-4-yl)acetamido)-1,2-dihydroxypropyl)-3-hydroxy-5-(2-hydroxyacetamido)-4-(3-methoxybenzamido)-2-(2-(2-(prop-2-yn-1-yloxy)ethoxy)ethoxy)tetrahydro-2H-pyran-2-carboxylic acid], the pKd was more than 6.00 in experiment [1], 5.00 to 6.00 in experiment [2] and 5.00 to 6.00 in experiment [3].
`C#CCCOc1ccc(CO[C@]2(C(=O)O)C[C@H](O)[C@@H](NC(=O)CO)[C@H]([C@H](O)[C@H](O)CNC(=O)Cc3ccc(-c4ccccc4)cc3)O2)cc1` [Compound 37, (2R,4S,5R,6R)-6-((1R,2R)-3-(2-([1,1′-biphenyl]-4-yl)acetamido)-1,2-dihydroxypropyl)-2-((4-(but-3-yn-1-yloxy)benzyl)oxy)-4-hydroxy-5-(2-hydroxyacetamido)tetrahydro-2H-pyran-2-carboxylic acid]: the pKd in experiment [1], in experiment [2] and in experiment [3] was more than 6.00 in each case.
For `C#CCCOc1cccc(CO[C@]2(C(=O)O)C[C@H](O)[C@@H](NC(=O)CO)[C@H]([C@H](O)[C@H](O)CNC(=O)Cc3ccc(-c4ccccc4)cc3)O2)c1` [Compound 38, (2R,4S,5R,6R)-6-((1R,2R)-3-(2-([1,1′-biphenyl]-4-yl)acetamido)-1,2-dihydroxypropyl)-2-((3-(but-3-yn-1-yloxy)benzyl)oxy)-4-hydroxy-5-(2-hydroxyacetamido)tetrahydro-2H-pyran-2-carboxylic acid], the pKd in experiment [1], in experiment [2] and in experiment [3] was more than 6.00 throughout.
Take `C#CCCCCCCO[C@]1(C(=O)O)C[C@H](O)[C@@H](NC(=O)CO)[C@H]([C@H](O)[C@H](O)CNC(=O)c2cccc(Oc3ccccc3)c2)O1` [Compound 40, (2R,4S,5R,6R)-6-((1R,2R)-1,2-dihydroxy-3-(3-phenoxybenzamido)propyl)-4-hydroxy-5-(2-hydroxyacetamido)-2-(oct-7-yn-1-yloxy) tetrahydro-2H-pyran-2-carboxylic acid]: the figures for the pKd in experiment [1], in experiment [2] and in experiment [3] were more than 6.00, more than 6.00 and 5.00 to 6.00, respectively.
Take `C#CCOCCOCCNc1c(NCCCCCCO[C@]2(C(=O)O)C[C@H](O)[C@@H](NC(=O)CO)[C@H]([C@H](O)[C@H](O)CNC(=O)C(F)(F)c3ccccc3)O2)c(=O)c1=O` [Compound 41, (2R,4S,5R,6R)-6-((1R,2R)-3-(2,2-difluoro-2-phenylacetamido)-1,2-dihydroxypropyl)-2-((6-((3,4-dioxo-2-((2-(2-(prop-2-yn-1-yloxy)ethoxy)ethyl)amino)cyclobut-1-en-1-yl)amino)hexyl)oxy)-4-hydroxy-5-(2-hydroxyacetamido) tetrahydro-2H-pyran-2-carboxylic acid]: the pKd in experiment [1], in experiment [2] and in experiment [3] was 5.00 to 6.00 in each case.

Values taken from patent US20250064941A1, “SIGLEC LIGANDS, CONJUGATES, AND METHODS OF USE THEREOF” (Osprey Biopharmaceuticals, Inc., priority 2023, published 2025).
